# From ChEMBL document CHEMBL5260810, “Inhibition of bromodomain-containing protein 9 for the prevention of epigenetically-defined drug resistance” (Bioorg Med Chem Lett, 2017)
# Experiments:
# Assay type in all cases: functional, cell-based
# [1] = test system: EJM; experiment: Cytotoxicity against human EJM cells measured after 8 days; settings: 192 h
# [2] = test system: JJN-3; experiment: Cytotoxicity against human JJN-3 cells measured after 8 days; settings: JJN-3, 192 h
# [3] = Cytotoxicity against human KMS-26 cells measured after 8 days; settings: KMS-26, 192 h
# [4] = test system: KMS-11; experiment: Cytotoxicity against human KMS-11 cells measured after 8 days; settings: KMS-11, 192 h
# [5] = test system: KG-1; experiment: Cytotoxicity against human KG-1 cells measured after 8 days; settings: KG-1, 192 h
# [6] = test system: NCI-H1930; experiment: Cytotoxicity against human NCI-H1930 cells measured after 8 days; settings: NCI-H1930, 192 h
# [7] = Cytotoxicity against human NCI-H2804 cells measured after 8 days; settings: NCI-H2804, 192 h
# [8] = Cytotoxicity against human NCE-G 140 cells measured after 8 days; settings: NCE-G 140, 192 h
# [9] = Cytotoxicity against human NCE-G 142 cells measured after 8 days; settings: NCE-G 142, 192 h
# [10] = test system: Hs 683; experiment: Cytotoxicity against human Hs 683 cells measured after 8 days; settings: Hs 683, 192 h
# [11] = test system: KALS-1; experiment: Cytotoxicity against human KALS-1 cells measured after 8 days; settings: KALS-1, 192 h
# [12] = test system: MC-IXC; experiment: Cytotoxicity against human MC-IXC cells measured after 8 days; settings: 192 h
# [13] = Cytotoxicity against human 59M cells measured after 8 days; settings: 192 h
# [14] = test system: CAL-148; experiment: Cytotoxicity against human CAL-148 cells measured after 8 days; settings: CAL-148, 192 h
# [15] = test system: DOV13; experiment: Cytotoxicity against human DOV13 cells measured after 8 days; settings: DOV13, 192 h
# [16] = Cytotoxicity against human Hs 38.T cells measured after 8 days; settings: 192 h
# [17] = Cytotoxicity against mouse ID8 cells measured after 8 days; settings: ID8, 192 h
# [18] = Cytotoxicity against human ONCO-DG-1 cells measured after 8 days; settings: ONCO-DG-1, 192 h
# [19] = Cytotoxicity against human OV56 cells measured after 8 days; settings: OV56, 192 h
# [20] = test system: MCF-10A; experiment: Cytotoxicity against human MCF-10A cells measured after 8 days; settings: 192 h
# [21] = test system: MCF-10A; experiment: Cytotoxicity against human MCF-10A CDH1-/- cells measured after 8 days; settings: 192 h
# [22] = test system: SUM149PT; experiment: Cytotoxicity against human SUM149PT cells measured after 8 days; settings: 192 h
# [23] = test system: TOV21G; experiment: Cytotoxicity against human TOV-21G cells measured after 8 days; settings: 192 h
# [24] = test system: ASPC1; experiment: Cytotoxicity against human ASPC1 cells measured after 8 days; settings: ASPC1, 192 h
# [25] = Cytotoxicity against human VP229 cells measured after 8 days; settings: VP229, 192 h
# [26] = test system: BOKU; experiment: Cytotoxicity against human BOKU cells measured after 8 days; settings: 192 h
# [27] = Cytotoxicity against human HCA1 cells measured after 8 days; settings: HCA1, 192 h
# [28] = Cytotoxicity against human HCS-2 cells measured after 8 days; settings: HCS-2, 192 h
# [29] = test system: HEp-2; experiment: Cytotoxicity against human HEp-2 cells measured after 8 days; settings: HEp-2, 192 h
# [30] = test system: HT-3; experiment: Cytotoxicity against human HT-3 cells measured after 8 days; settings: HT-3, 192 h
# [31] = Cytotoxicity against human MR1-3 cells measured after 8 days; settings: MR1-3, 192 h
# [32] = Cytotoxicity against human KP-3 cells measured after 8 days; settings: KP-3, 192 h
# [33] = Cytotoxicity against human KPP14388 LN cells measured after 8 days; settings: 192 h
# [34] = Cytotoxicity against human KR7110 cells measured after 8 days; settings: KR7110, 192 h
# [35] = test system: Panc02; experiment: Cytotoxicity against mouse Panc02 cells measured after 8 days; settings: Panc02, 192 h
# [36] = Cytotoxicity against human CoCM-1 cells measured after 8 days; settings: CoCM-1, 192 h
# [37] = test system: SW1990; experiment: Cytotoxicity against human SW1990 cells measured after 8 days; settings: SW1990, 192 h
# [38] = test system: NCI-H2052; experiment: Cytotoxicity against human NCI-H2052 cells measured after 8 days; settings: NCI-H2052, 192 h
# [39] = test system: KM12; experiment: Cytotoxicity against human KM12 cells measured after 8 days; settings: KM12, 192 h
# [40] = test system: RPMI-2650; experiment: Cytotoxicity against human RPMI-2650 cells measured after 8 days; settings: RPMI-2650, 192 h
# [41] = test system: CHL-1; experiment: Cytotoxicity against human CHL-1 cells measured after 8 days; settings: CHL-1, 192 h
# [42] = test system: T84; experiment: Cytotoxicity against human T84 cells measured after 8 days; settings: T84, 192 h
# [43] = test system: KYSE-270; experiment: Cytotoxicity against human KYSE-270 cells measured after 8 days; settings: KYSE-270, 192 h
# [44] = test system: KYSE-30; experiment: Cytotoxicity against human KYSE-30 cells measured after 8 days; settings: KYSE-30, 192 h
# [45] = test system: KYSE-410; experiment: Cytotoxicity against human KYSE-410 cells measured after 8 days; settings: KYSE-410, 192 h
# [46] = Cytotoxicity against human HCC1010 cells measured after 8 days; settings: HCC1010, 192 h
# [47] = Cytotoxicity against human UM-RC-7 cells measured after 8 days; settings: UM-RC-7, 192 h
# [48] = test system: Malme-3M; experiment: Cytotoxicity against human Malme-3M cells measured after 8 days; settings: 192 h
# [49] = test system: MDA-MB-435; experiment: Cytotoxicity against human MDA-MB-435 cells measured after 8 days; settings: MDA-MB-435, 192 h
# [50] = Cytotoxicity against human JHH-2 cells measured after 8 days; settings: JHH-2, 192 h
# [51] = Cytotoxicity against human JHH-4 cells measured after 8 days; settings: JHH-4, 192 h
# [52] = Cytotoxicity against human JHH7 cells measured after 8 days; settings: JHH7, 192 h
# [53] = test system: PLC-PRF-5; experiment: Cytotoxicity against human PLCPRF5 cells measured after 8 days; settings: PLC-PRF-5, 192 h
# [54] = test system: NCI-N87; experiment: Cytotoxicity against human NCI-N87 cells measured after 8 days; settings: NCI-N87, 192 h
# [55] = test system: NUGC-3; experiment: Cytotoxicity against human NUGC-3 cells measured after 8 days; settings: NUGC-3, 192 h
# [56] = test system: SNU-16; experiment: Cytotoxicity against human SNU-16 cells measured after 8 days; settings: SNU-16, 192 h
# [57] = Cytotoxicity against human SNU-601 cells measured after 8 days; settings: SNU-601, 192 h
# [58] = test system: 8305C; experiment: Cytotoxicity against human 8305C cells measured after 8 days; settings: 192 h
# [59] = test system: CAL-27; experiment: Cytotoxicity against human CAL-27 cells measured after 8 days; settings: CAL-27, 192 h
# [60] = test system: COLO-684; experiment: Cytotoxicity against human COLO-684 cells measured after 8 days; settings: COLO-684, 192 h
# [61] = test system: HT-1080; experiment: Cytotoxicity against human HT-1080 cells measured after 8 days; settings: HT-1080, 192 h
# [62] = Cytotoxicity against mouse KLN205 cells measured after 8 days; settings: KLN205, 192 h
smiles,measurement,setting,value
C/C=C/Cn1cc(-c2ccc(C(C)(C)O)cc2OC)c2cc[nH]c2c1=O,IC50,[1],20 µM
same,IC50,[2],17.6 µM
same,IC50,[3],2.61 µM
same,IC50,[4],9.13 µM
same,IC50,[5],20 µM
same,IC50,[6],20 µM
same,IC50,[7],20 µM
same,IC50,[8],20 µM
same,IC50,[9],20 µM
same,IC50,[10],20 µM
same,IC50,[11],20 µM
same,IC50,[12],20 µM
same,IC50,[13],20 µM
same,IC50,[14],20 µM
same,IC50,[15],20 µM
same,IC50,[16],20 µM
same,IC50,[17],20 µM
same,IC50,[18],20 µM
same,IC50,[19],20 µM
same,IC50,[20],11.4 µM
same,IC50,[21],20 µM
same,IC50,[22],20 µM
same,IC50,[23],20 µM
same,IC50,[24],20 µM
same,IC50,[25],20 µM
same,IC50,[26],20 µM
same,IC50,[27],20 µM
same,IC50,[28],20 µM
same,IC50,[29],20 µM
same,IC50,[30],20 µM
same,IC50,[31],20 µM
same,IC50,[32],20 µM
same,IC50,[33],20 µM
same,IC50,[34],20 µM
same,IC50,[35],20 µM
same,IC50,[36],20 µM
same,IC50,[37],20 µM
same,IC50,[38],20 µM
same,IC50,[39],20 µM
same,IC50,[40],20 µM
same,IC50,[41],15.2 µM
same,IC50,[42],20 µM
same,IC50,[43],20 µM
same,IC50,[44],20 µM
same,IC50,[45],20 µM
same,IC50,[46],20 µM
same,IC50,[47],20 µM
same,IC50,[48],20 µM
same,IC50,[49],11.1 µM
same,IC50,[50],20 µM
same,IC50,[51],20 µM
same,IC50,[52],17.8 µM
same,IC50,[53],20 µM
same,IC50,[54],20 µM
same,IC50,[55],20 µM
same,IC50,[56],20 µM
same,IC50,[57],20 µM
same,IC50,[58],20 µM
same,IC50,[59],20 µM
same,IC50,[60],20 µM
same,IC50,[61],20 µM
same,IC50,[62],20 µM
C/C=C/Cn1cc(-c2ccc(C(=O)N3CCOCC3)cc2)c2cc[nH]c2c1=O,IC50,[1],20 µM
same,IC50,[2],12.2 µM
same,IC50,[3],2.11 µM
same,IC50,[4],12.4 µM
same,IC50,[5],20 µM
same,IC50,[6],20 µM
same,IC50,[7],20 µM
same,IC50,[8],20 µM
same,IC50,[9],20 µM
same,IC50,[10],20 µM
same,IC50,[11],20 µM
same,IC50,[12],20 µM
same,IC50,[13],20 µM
same,IC50,[14],20 µM
same,IC50,[15],20 µM
same,IC50,[16],20 µM
same,IC50,[17],20 µM
same,IC50,[18],20 µM
same,IC50,[19],20 µM
same,IC50,[20],20 µM
same,IC50,[21],20 µM
same,IC50,[22],20 µM
same,IC50,[23],20 µM
same,IC50,[24],20 µM
same,IC50,[25],20 µM
same,IC50,[26],20 µM
same,IC50,[27],20 µM
same,IC50,[28],20 µM
same,IC50,[29],20 µM
same,IC50,[30],20 µM
same,IC50,[31],20 µM
same,IC50,[32],20 µM
same,IC50,[33],20 µM
same,IC50,[34],20 µM
same,IC50,[35],20 µM
same,IC50,[36],20 µM
same,IC50,[37],20 µM
same,IC50,[38],20 µM
same,IC50,[39],20 µM
same,IC50,[40],20 µM
same,IC50,[41],15.2 µM
same,IC50,[42],20 µM
same,IC50,[43],20 µM
same,IC50,[44],20 µM
same,IC50,[45],20 µM
same,IC50,[46],20 µM
same,IC50,[47],20 µM
same,IC50,[48],20 µM
same,IC50,[49],20 µM
same,IC50,[50],20 µM
same,IC50,[51],20 µM
same,IC50,[52],20 µM
same,IC50,[53],20 µM
same,IC50,[54],20 µM
same,IC50,[55],20 µM
same,IC50,[56],20 µM
same,IC50,[57],20 µM
same,IC50,[58],20 µM
same,IC50,[59],20 µM
same,IC50,[60],20 µM
same,IC50,[61],20 µM
same,IC50,[62],20 µM
